Measurements published in patent publication US8758723B2, “Compositions and methods for cellular imaging and therapy” (The Board of Regents of the University of Texas System, priority 2006, dated 2014).

System: tumor-bearing animal models
Assay: Planar images of tumor-bearing animal models
Type: in vivo
Settings: tumor-bearing animal models (FIGS. 5-7, 9, 10)
Protocol: Imaging studies were performed 12 to 15 days after inoculation. Tumor sizes of approximately 1-1.5 cm were measured. Scintigraphic images were obtained using an M-camera from Siemens Medical Systems (Hoffman Estates, Ill.). The camera was equipped with a low-energy parallel-hole collimator.
Planar scintigraphy was obtained at immediate, 0.5-4 hrs after i.v. injection of ^99mTc—N4-DG, or ^99mTc—N4 (0.3 mCi/rat; 0.1 mg mass/rabbit). To compare the radiotracer accumulation, ROIs (region of interest in counts per pixel) were determined. The ROIs count between tumor and muscle was used to calculate tumor-to-nontumor ratios.

With `CC(N)(Cc1ccc(OCCCN2CCCNCCNCCCNCC2)cc1)C(=O)O` (stereo not shown) [Example N4-AMT] the “tumor visualization on planar images” value was “visualized clearly”.
